# Measured values published in patent US20190321496A1, “AGENTS AND METHODS FOR THE DIAGNOSIS AND TREATMENT OF DISEASES ASSOCIATED WITH EXTRACELLULAR MATRIX TURNOVER” (Baker IDI Heart and Diabetes Institute Holdings Limited, priority 2016, published 2019).
# What was measured:
# unstable plaques = test: In vivo treatment of tandem stenosis mice, plaque collagen quantification (Picrosirius Red); design: species or system mouse; details: tandem stenosis ApoE knock out mice, 2 tail vein injections 2 weeks apart, killed 2 weeks after second dose, PBS 14.40±4.522
# Experimental: As described elsewhere herein, at 12 weeks of age and 6 weeks after commencement of high fat diet, ApoE−/− mice (C57BL/6J background) were anaesthetized by intraperitoneal injection of a mixture of ketamine (100 mg/kg) and xylazine (10 mg/kg). An incision was made in the neck and the right common carotid artery exposed by dissecting away circumferential connective tissue. A tandem stenosis with 150 μm outer diameter was introduced with the distal stenosis placed 1 mm from the carotid artery bifurcation and the proximal stenosis 3 mm from the distal stenosis. A 6-0 blue braided polyester fibre suture was tied around the carotid artery and a 150 μm needle to achieve the stenosis diameter of 150 μm and the needle was subsequently removed after the suture was secured. The incision wound was sutured close and the mice resumed their high fat diet. […]
# Collagen quantification of the Picrosirius Red slides were performed using Image J software (National Institute of Health USA). […] For each section, the quantity of plaque collagen is expressed as the percentage of collagen within the plaque: […]
# All quantitative data was analysed by PRISM 6 (GraphPad Software Inc.) and reported as mean +/− one standard deviation. […] Unpaired t test with Welch's correction was also used to analyse the collagen quantification data for the mouse in vivo treatment experiments. […]
# MMP14 = test: Assay of MMP14 activity (FRET peptide) in HT1080 cells treated with Naphthofluorescein; assay type: cell-based, human; details: n=3, untreated cells 473.7±20.93
# Experimental: Detection of Cy 3.5 signals of the MMP14 FRET peptide was performed using the FLUOstar OPTIMA BMG LABTECH 96 microplate fluorescence reader standardized for optic settings of excitation 544 nm and emission 590 nm, temperature settings at 37° C., with readings taken every 10 minutes over a 120 minute duration and double orbital shaking at a width of 4 mm 1 second prior to each cycle. All confocal live cell studies were performed using the Nikon Air inverted microscope (Tokyo, Japan) with live cell imaging chamber (designed by Monash Micro imaging). Tissue sections were obtained by cryo-sectioning frozen tissue using the Leica CM1950 cryostat (Leica Microsystems, Germany).
# A peptide sequence that is preferentially cleaved by MMP14 was used to create a FRET probe with N terminal Cy3.5 and C terminal BHQ (Black Hole Quencher): Cy3.5 SGRIGFLRTACBHQ2 (SEQ ID NO:13). The presence of MMP14 activity cleaves this peptide and separates the Cy3.5 from BHQ. […] The cells were centrifuged at 4000 rcf for 5 minutes, cell pellet was resuspended in PBS containing calcium and magnesium and counted using a haemocytometer. […] The 96 well microplate was incubated at 37° C. inside the FluorSTAR Optima fluorescent microplate reader for 2 hours while Cy 3.5 signal readings in the (Ex544, Em590) channel were taken every 10 minutes. […] The readings were plotted as bar charts in Prism software. […]
smiles,measurement,setting,value
O=C1OC2(c3ccccc31)c1ccc3cc(O)ccc3c1Oc1c2ccc2cc(O)ccc12 [Naphthofluorescein],collagen percentage of the plaque area,unstable plaques,18.87+5.308 percentage of the plaque area
same,Cy3.5 increase (MMP14 FRET peptide),"MMP14; HT1080 cells treated with 20 μM unaltered free Naphthofluorescein for 1 week, time zero to 120 minutes",125.0±17.04
same,"Cy3.5 increase (MMP14 FRET peptide), pH 5 rendered drug","MMP14; HT1080 cells, Naphthofluorescein pre-treated in HCl solution at pH 5 for 30 minutes then neutralised with NaOH",126.7±2.728
